Measurements reported in patent publication US20230416228A1 (Forkhead Biotherapeutics, Inc., priority 2020, published 2023).

Target: T1, human FOXO1 (constitutively active form Thr24Ala, Ser256Ala, Ser319Ala) (Homo sapiens, UniProt Q12778, S256A/S319A/T24A)
T1 construct: expressed in transfected cells; host or cells: HEK293 cells transfected with pcDNA3.1 plasmid
Assay: FOXO1 inhibitor activity assay: cell-based transcriptional (luciferase) reporter assay in HEK293 cells
Details: HEK293 cells transfected with insulin response element firefly luciferase reporter, FOXO1 and Renilla luciferase; 10-point dose response 50 μM to 2.5 nM; 24 hours
Method in brief: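 IC50 and maximal inhibition were fitted by 4-parameter logistic regression on normalized firefly/Renilla luciferase ratios. The 0% reference used RFP in place of FOXO1, and the 100% reference was DMSO-only with all plasmids.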

T1 sequence (Q12778 whole entry T24A/S256A/S319A): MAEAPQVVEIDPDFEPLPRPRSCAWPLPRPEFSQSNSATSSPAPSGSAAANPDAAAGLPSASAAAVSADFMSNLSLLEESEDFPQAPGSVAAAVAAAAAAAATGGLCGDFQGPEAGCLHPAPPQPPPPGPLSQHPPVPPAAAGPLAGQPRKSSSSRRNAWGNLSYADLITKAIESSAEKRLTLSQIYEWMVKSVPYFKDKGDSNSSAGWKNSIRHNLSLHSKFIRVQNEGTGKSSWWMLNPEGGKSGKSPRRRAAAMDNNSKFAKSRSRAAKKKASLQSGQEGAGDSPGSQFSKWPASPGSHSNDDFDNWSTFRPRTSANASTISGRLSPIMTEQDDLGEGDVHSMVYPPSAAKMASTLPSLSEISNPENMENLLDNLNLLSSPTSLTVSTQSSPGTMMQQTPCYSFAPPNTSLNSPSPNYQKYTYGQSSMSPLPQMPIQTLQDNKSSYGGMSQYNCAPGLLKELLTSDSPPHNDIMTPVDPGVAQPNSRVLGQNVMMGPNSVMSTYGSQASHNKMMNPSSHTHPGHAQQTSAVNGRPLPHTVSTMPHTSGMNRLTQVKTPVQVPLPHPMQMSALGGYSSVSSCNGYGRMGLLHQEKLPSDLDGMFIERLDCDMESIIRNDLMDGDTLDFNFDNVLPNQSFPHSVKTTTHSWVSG

| IC50 [nM] | Structure (SMILES) |
| --- | --- |
| 100 to 300 | CN1CCN(c2ccc(C(=O)Nc3cc(-c4nc5ccccc5[nH]4)n(C)n3)cc2)CC1=O [Compound A-235, N-[5-(1H-benzimidazol-2-yl)-1-methyl-pyrazol-3-yl]-4-(4-methyl-3-oxo-piperazin-1-yl)benzamide] |
| 100 to 300 | Cc1nc(N2CCOCC2)ccc1C(=O)Nc1cc(-c2nc3ccccc3[nH]2)n(C)n1 [Compound A-236] |
| < 100 | COc1cc(F)c2[nH]c(-c3cc(NC(=O)c4ccc(N5CCOC(CO)C5)nc4)nn3C)nc2c1 (stereo not drawn) [Compound A-237, N-[5-(7-fluoro-5-methoxy-1H-benzimidazol-2-yl)-1-methyl-pyrazol-3-yl]-6-[2-(hydroxymethyl)morpholin-4-yl]pyridine-3-carboxamide] |
| 100 to 300 | Cn1nc(NC(=O)c2ccc(N3CCOCC3CO)nc2)cc1-c1nc2ccccc2[nH]1 (stereo not drawn) [Compound A-238, N-[5-(1H-benzimidazol-2-yl)-1-methyl-pyrazol-3-yl]-6-[3-(hydroxymethyl)morpholin-4-yl]pyridine-3-carboxamide] |
| > 1000 | COc1cc(F)c2[nH]c(-c3cc(NC(=O)c4ccc(N5CCOC(CO)C5)nc4)n[nH]3)nc2c1 (stereo not drawn) [Compound A-239, N-[5-(7-fluoro-5-methoxy-1H-benzimidazol-2-yl)-1H-pyrazol-3-yl]-6-[2-(hydroxymethyl)morpholin-4-yl]pyridine-3-carboxamide] |
| < 100 | COc1cc(F)c2[nH]c(-c3cc(NC(=O)c4ccc(N5CCN(C(C)=O)CC5)nc4)nn3C)nc2c1 [Compound A-240, 6-(4-acetylpiperazin-1-yl)-N-[5-(7-fluoro-5-methoxy-1H-benzimidazol-2-yl)-1-methyl-pyrazol-3-yl]pyridine-3-carboxamide] |
| 300 to 1000 | CN1CCN(c2ccc(C(=O)Nc3nc(-c4nc5ccccc5[nH]4)n(C)n3)cc2)CC1 [Compound A-241, N-[5-(1H-benzimidazol-2-yl)-1-methyl-1,2,4-triazol-3-yl]-4-(4-methylpiperazin-1-yl)benzamide] |
| 100 to 300 | CN1CCN(c2ccc(C(=O)Nc3cc(-c4nc5ccccc5[nH]4)[nH]n3)cc2)CC1=O [Compound A-242, N-[5-(1H-benzimidazol-2-yl)-1H-pyrazol-3-yl]-4-(4-methyl-3-oxo-piperazin-1-yl)benzamide] |
| 300 to 1000 | CN1CCN(c2ccc(C(=O)Nc3cc(-c4nc5ccccc5[nH]4)[nH]n3)cn2)CC1=O [Compound A-243, N-[5-(1H-benzimidazol-2-yl)-1H-pyrazol-3-yl]-6-(4-methyl-3-oxo-piperazin-1-yl)pyridine-3-carboxamide] |
| 100 to 300 | CC(C)C(=O)N1CCN(c2ccc(C(=O)Nc3cc(-c4nc5ccccc5[nH]4)n(C)n3)cn2)CC1 [Compound A-244, N-[5-(1H-benzimidazol-2-yl)-1-methyl-pyrazol-3-yl]-6-[4-(2-methylpropanoyl)piperazin-1-yl]pyridine-3-carboxamide] |
| < 100 | C[C@H]1CN(c2ccc(C(=O)Nc3cc(-c4nc5ccccc5[nH]4)n(C)n3)cn2)CCN1 [Compound A-245, N-[5-(1H-benzimidazol-2-yl)-1-methyl-pyrazol-3-yl]-6-[(3S)-3-methylpiperazin-1-yl]pyridine-3-carboxamide] |
| 100 to 300 | CN1CCN(c2ccc(C(=O)Nc3cc(-c4nc5ccccc5[nH]4)n(C)n3)cn2)CC1=O [Compound A-246, N-[5-(1H-benzimidazol-2-yl)-1-methyl-pyrazol-3-yl]-6-(4-methyl-3-oxo-piperazin-1-yl)pyridine-3-carboxamide] |
| < 100 | C[C@@H]1CN(c2ccc(C(=O)Nc3cc(-c4nc5ccccc5[nH]4)n(C)n3)cn2)CCN1 [Compound A-247, N-[5-(1H-benzimidazol-2-yl)-1-methyl-pyrazol-3-yl]-6-[(3R)-3-methylpiperazin-1-yl]pyridine-3-carboxamide] |
| < 100 | Cn1nc(NC(=O)c2ccc(N3CCO[C@@H](CO)C3)nc2)cc1-c1nc2ccccc2[nH]1 [Compound A-248, N-[5-(1H-benzimidazol-2-yl)-1-methyl-pyrazol-3-yl]-6-[(2R)-2-(hydroxymethyl)morpholin-4-yl]pyridine-3-carboxamide] |
| 100 to 300 | Cn1nc(NC(=O)c2ccc(N3CCN4C(=O)CC[C@@H]4C3)nc2)cc1-c1nc2ccccc2[nH]1 [Compound A-249, 6-[(8aR)-6-oxo-1,3,4,7,8,8a-hexahydropyrrolo[1,2-a]pyrazin-2-yl]-N-[5-(1H-benzimidazol-2-yl)-1-methyl-pyrazol-3-yl]pyridine-3-carboxamide] |
| 300 to 1000 | Cn1nc(NC(=O)c2ccc(N3CCN4C(=O)CC[C@H]4C3)nc2)cc1-c1nc2ccccc2[nH]1 [Compound A-250] |
| < 100 | Cn1nc(NC(=O)c2ccc(N3CCO[C@H](CO)C3)nc2)cc1-c1nc2ccccc2[nH]1 [Compound A-251, N-[5-(1H-benzimidazol-2-yl)-1-methyl-pyrazol-3-yl]-6-[(2S)-2-(hydroxymethyl)morpholin-4-yl]pyridine-3-carboxamide] |

| IC50 [nM] | Structure (SMILES) |
| --- | --- |
| < 100 | Cn1nc(NC(=O)c2ccc(OC3COC3)c(Cl)c2)cc1-c1nc2ccccc2[nH]1 [Compound A-252, N-[5-(1H-benzimidazol-2-yl)-1-methyl-pyrazol-3-yl]-3-chloro-4-(oxetan-3-yloxy)benzamide] |
| 100 to 300 | Cc1nc(N2CCN(C)CC2)ccc1C(=O)Nc1cc(-c2nc3ccccc3[nH]2)n(C)n1 [Compound A-253, N-[5-(1H-benzimidazol-2-yl)-1-methyl-pyrazol-3-yl]-2-methyl-6-(4-methylpiperazin-1-yl)pyridine-3-carboxamide] |
| > 1000 | CC(=O)N1CCN(c2ccc(C(=O)Nc3cc(-c4nc5ccccc5[nH]4)n(C)n3)cn2)CC1CO (stereo not drawn) [Compound A-254, 6-14-acetyl-3-(hydroxymethyl)piperazin-1-yl-N-[5-(1H-benzimidazol-2-yl)-1-methyl-pyrazol-3-yl]pyridine-3-carboxamide] |
| < 100 | C[C@@H]1CN(c2ccc(C(=O)Nc3cc(-c4nc5ccccc5[nH]4)n(C)n3)cn2)C[C@H](C)N1 [Compound A-255, N-[5-(1H-benzimidazol-2-yl)-1-methyl-pyrazol-3-yl]-6-[(3R,5S)-3,5-dimethylpiperazin-1-yl]pyridine-3-carboxamide] |
| < 100 | COCCOc1ccc2[nH]c(-c3cc(NC(=O)c4ccc(OC)c(Cl)c4)n[nH]3)nc2c1 [Compound A-256, 3-chloro-4-methoxy-N-[5-[5-(2-methoxyethoxy)-1H-benzimidazol-2-yl]-1H-pyrazol-3-yl]benzamide] |
| 300 to 1000 | Cn1nc(NC(=O)c2ccc(N3CCNC(CO)C3)nc2)cc1-c1nc2ccccc2[nH]1 (stereo not drawn) [Compound A-258, N-[5-(1H-benzimidazol-2-yl)-1-methyl-pyrazol-3-yl]-6-[3-(hydroxy-methyl)piperazin-1-yl]pyridine-3-carboxamide] |
| < 100 | Cn1nc(NC(=O)c2ccc(N3CCN(CC(C)(C)O)CC3)cc2)cc1-c1nc2ccccc2[nH]1 [Compound A-259, N-[5-(1H-benzimidazol-2-yl)-1-methyl-pyrazol-3-yl]-4-[4-(2-hydroxy-2-methyl-propyl)piperazin-1-yl]benzamide] |
| 100 to 300 | [2H]C([2H])([2H])OCCN1CCN(c2ccc(C(=O)Nc3cc(-c4nc5ccccc5[nH]4)n(C)n3)cn2)CC1 [Compound A-260, N-[5-(1H-benzimidazol-2-yl)-1-methyl-pyrazol-3-yl]-6-[4-[2-(trideuterio-methoxy)ethyl]piperazin-1-yl]pyridine-3-carboxamide] |
| < 100 | COc1ccc(C(=O)Nc2cc(-c3nc4cc(N5CCN(C)CC5)ccc4[nH]3)[nH]n2)cc1Cl [Compound A-261, 3-chloro-4-methoxy-N-[5-[5-(4-methylpiperazin-1-yl)-1H-benzimidazol-2-yl]-1H-pyrazol-3-yl]benzamide] |
| 100 to 300 | Cc1nc(N2CCOC(CO)C2)ccc1C(=O)Nc1cc(-c2nc3ccccc3[nH]2)n(C)n1 (stereo not drawn) [Compound A-262, N-[5-(1H-benzimidazol-2-yl)-1-methyl-pyrazol-3-yl]-6-[2-(hydroxy-methyl)morpholin-4-yl]-2-methyl-pyridine-3-carboxamide] |
| 100 to 300 | CN1CCN(c2ccc(C(=O)Nc3cc(-c4nc5ccccc5[nH]4)n(C)n3)cn2)CC1CO (stereo not drawn) [Compound A-263, N-[5-(1H-benzimidazol-2-yl)-1-methyl-pyrazol-3-yl]-6-[3-(hydroxy-methyl)-4-methyl-piperazin-1-yl]pyridine-3-carboxamide] |
| 300 to 1000 | Cc1nc(N2CCN(C3COC3)CC2)ccc1C(=O)Nc1cc(-c2nc3ccccc3[nH]2)n(C)n1 [Compound A-264, N-[5-(1H-benzimidazol-2-yl)-1-methyl-pyrazol-3-yl]-2-methyl-6-[4-(oxetan-3-yl)piperazin-1-yl]pyridine-3-carboxamide] |
| < 100 | COc1ccc(C(=O)Nc2cc(-c3nc4cc(N5CCOCC5)ccc4[nH]3)[nH]n2)cc1Cl [Compound A-265, 3-chloro-4-methoxy-N-[15-(5-morpholino-1H-benzimidazol-2-yl)-1H-pyrazol-3-yl]benzamide] |
| < 100 | Cn1nc(NC(=O)c2ccc(N3CCN(CCOC4CC4)CC3)nc2)cc1-c1nc2ccccc2[nH]1 [Compound A-266, N-[5-(1H-benzimidazol-2-yl)-1-methyl-pyrazol-3-yl]-6-[4-[2-(cyclo-propoxy)ethyl]piperazin-1-yl]pyridine-3-carboxamide] |
| < 100 | Cn1nc(NC(=O)c2ccc(N3C[C@H]4COC[C@H]4C3)nc2)cc1-c1nc2ccccc2[nH]1 [Compound A-267, 6-[(3aR,6aS)-1,3,3a,4,6,6a-hexahydrofuro[3,4-c]pyrrol-5-yl]-N-[5-(1H-benzimidazol-2-yl)-1-methyl-pyrazol-3-yl]pyridine-3-carboxamide] |
| 100 to 300 | Cn1nc(NC(=O)c2ccc(N3CCC4(COC4)C3)nc2)cc1-c1nc2ccccc2[nH]1 [Compound A-268, N-[5-(1H-benzimidazol-2-yl)-1-methyl-pyrazol-3-yl]-6-(2-oxa-7-azaspiro[3.4]octan-7-yl)pyridine-3-carboxamide] |
